The values that follow come from PMC8667043, “First-in-Class Inhibitors of the Ribosomal Oxygenase MINA53” (Journal of Medicinal Chemistry, 2021).

For one test, the system named is U-87MG cells. Put plainly: Western blot of H2AX serine 139 phosphorylation (γ-H2AX). Format: cell-based, human. Set-up: dose or concentration left out as unconfirmed. The conditions noted are these: time-dependent (2, 4, 8 h). The method, then:
(§1) Proteins were transferred onto nitrocellulose or PVDF membranes and incubated with rabbit γ-H2AX (#9718, Cell Signaling Technologies, MA) anti-GAPDH (Sc47724, Santa Cruz Biotechnology, Santa Cruz, CA), rabbit anti-RPL27A (Abcam, ab74731), goat anti-RPL8 (Abcam, ab63941), horseradish peroxidase (HRP)-conjugated anti-HA (Roche, 12013819001), and HRP-conjugated anti-β-actin (Abcam, ab-49900).
Figure S19. Western blot analysis and relative densitometric analysis of the phosphorylated form of H2AX (ser139) on U-8 7MG glioma cells exposed for the indicated times to 1 (negative control), […]
Doxorubicin was used as a positive control (0.5 μM, 8 h). GAPDH expression was used as a control loading. Results are express ed as f old changes over […]
On the technique in general: In western blotting, separated proteins are transferred to a membrane and probed.

The next test deals with IMS-M2. Briefly: WST-1 cell proliferation assay. Format: cell-based. The note with it: AML, WST-1, 48 h, read-out: IC50 antiproliferative effect, IMS-M2. The method, then: (§2) The effect of compounds on cell proliferation of different leukemia and lymphoma cell lines OCI-AML3 (DSMZ ACC-582), IMS-M2 (a gift from Professor B. Falini, University of Perugia), OCI-AML2 (DSMZ, ACC-99), MV4–11 (ATCC, CRL-9591), Kasumi-1 (ATCC, CRL-2724), Karpass299 (DSMZ, ACC-31), U937 (ATCC, CRL1593.2), HL-60 (ATCC, CCL-240), and NB4 (DSMZ, ACC-207) was evaluated using the WST-1 assay (Roche Diagnostic GmbH Germany). The cells were plated, in triplicate, in 384-viewplate (Perkin Elmer) at a density of 5 × 10^3 cells/well in a final volume of 22.5 μL. The cells were incubated with increasing concentrations of compounds for 48 h at 37 °C, 5% CO2, then 2.5 μL of WST-1 reagent was added to each well for 1 h. For each cell line, dose–response curves were analyzed as nonlinear regression curves using GraphPad Prism (GraphPad Software Inc.) to obtain IC50 values.

A further test relates to U937. Put plainly: WST-1 cell proliferation assay. Format: cell-based. The note with it: Homo sapiens, U-937; AML; WST-1, 48 h; read-out: IC50 antiproliferative effect, U937. As to the method: as §2
A further test has as its system Karpass299. Put plainly: WST-1 cell proliferation assay. It counts as cell-based. The note with it: ALCL; WST-1, 48 h; read-out: IC50 antiproliferative effect, Karpass299. As to the method: as §2
(Tetrazolium dyes change colour on reduction, which living cells bring about.)

A further test relates to MV4-11. Put plainly: WST-1 cell proliferation assay. It counts as cell-based. The conditions noted are these: Homo sapiens, AML, WST-1, 48 h, read-out: IC50 antiproliferative effect, MV4-11. The method, then:
as §2

Another test concerns OCI-AML2. Put plainly: WST-1 cell proliferation assay. It counts as cell-based. The conditions noted are these: Homo sapiens, AML, WST-1, 48 h, read-out: IC50 antiproliferative effect, OCI-AML2. As to the method:
as §2

The subject of another test is NB4. Briefly: WST-1 cell proliferation assay. It counts as cell-based. The conditions noted are these: Homo sapiens, NB-4; APL; WST-1, 48 h; read-out: IC50 antiproliferative effect, NB4. The method, then: as §2
A further test has as its system HL-60. Put plainly: WST-1 cell proliferation assay. Format: cell-based. The note with it: Homo sapiens, APL, WST-1, 48 h, read-out: IC50 antiproliferative effect, HL-60. The method, then: as §2
A further test relates to Kasumi-1. Briefly: WST-1 cell proliferation assay. Format: cell-based. The note with it: Homo sapiens, AML, WST-1, 48 h, read-out: IC50 antiproliferative effect, Kasumi-1. The method, then: as §2
The subject of another test is OCI-AML3. Put plainly: WST-1 cell proliferation assay. Format: cell-based. The conditions noted are these: Homo sapiens, OCI-AML-3, WST-1, 48 h, read-out: IC50 antiproliferative effect, OCI-AML3. The method, then:
as §2

A further test deals with T1, HA-tagged NO66 (Homo sapiens, UniProt Q9H6W3).
T1 construct: expressed in transfected cells; host or cells: HEK293T (transient, pEF6 vector)
Put plainly: Substrate trapping by anti-HA immunoprecipitation (RPL8). It counts as cell-based. The conditions noted are these: HEK293T cells; 100 μM, 18 h. As to the method: as §1
For immunoprecipitation, the cells were harvested on ice and lysed by rotation for 1 h at 4 °C in JIES buffer. The cell debris was subsequently pelleted by centrifugation (10 min at 21 910g at 4 °C), and the supernatant was incubated overnight at 4 °C with Pierce anti-HA agarose beads (Thermo Scientific, 26181). The next day, the beads were washed 6 times with JIES buffer before the immunoprecipitates were eluted for 15 min at 1400 rpm at room temperature using 1 mg/mL HA peptide (Thermo Scientific, 26184) dissolved in JIES buffer. The eluted samples were then prepared in 1× Laemmli loading buffer (6x: 125 mM Tris-HCl [pH 6.8], 6% (w/v) SDS, 50% (v/v) glycerol, 225 mM dithiothreitol (DTT), and 0.1% (w/v) bromophenol blue) and boiled for 5 min for detection by western blot.
Plasmid DNA transfections were performed using a FuGENE 6 transfection reagent (Promega, E2691). […]

T1 sequence (Q9H6W3 whole entry): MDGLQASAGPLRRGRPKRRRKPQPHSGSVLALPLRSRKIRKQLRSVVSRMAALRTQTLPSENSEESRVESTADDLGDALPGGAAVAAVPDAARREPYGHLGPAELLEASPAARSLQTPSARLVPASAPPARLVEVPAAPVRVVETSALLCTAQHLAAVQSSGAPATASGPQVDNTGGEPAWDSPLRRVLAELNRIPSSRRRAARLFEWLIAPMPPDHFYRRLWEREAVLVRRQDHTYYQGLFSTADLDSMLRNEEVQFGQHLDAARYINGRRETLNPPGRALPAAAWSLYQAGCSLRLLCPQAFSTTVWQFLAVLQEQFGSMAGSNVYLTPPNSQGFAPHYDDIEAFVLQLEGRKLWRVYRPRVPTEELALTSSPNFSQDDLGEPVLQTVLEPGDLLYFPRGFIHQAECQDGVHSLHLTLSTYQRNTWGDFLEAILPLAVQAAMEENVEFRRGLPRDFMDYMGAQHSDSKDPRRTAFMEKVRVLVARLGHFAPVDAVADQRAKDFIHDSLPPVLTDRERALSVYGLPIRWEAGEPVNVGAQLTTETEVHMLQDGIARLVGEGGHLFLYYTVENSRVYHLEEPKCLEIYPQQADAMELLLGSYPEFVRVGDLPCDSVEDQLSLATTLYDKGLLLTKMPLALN

For `O=C(O)c1cnc(SCCCc2ccccc2)[nH]c1=O` [compound 10, 2-((3-Phenylpropyl)thio)-3,4-dihydro-4-oxopyrimidine-5-carboxylic Acid], the “γ-H2AX (H2AX serine 139 phosphorylation)” value in the test with U-87MG cells was “strong γ-H2AX increase”. Moreover, the concentration for half-maximal inhibition (IC50) with IMS-M2 is > 100 µM; with U937, > 100 µM; in the test with Karpass299, > 100 µM; in the test on MV4-11, > 100 µM; in the test on OCI-AML2, > 100 µM; in the test with NB4, 94 ± 4 µM. The IC50 in the test on HL-60 was 14 ± 2 µM; in the test with Kasumi-1, > 100 µM; with OCI-AML3, > 100 µM. The “trapping of RPL8 with HA-tagged NO66” value at HA-tagged NO66 was “did not observe evidence”.
For `O=C(O)c1c[nH]c(=S)[nH]c1=O` [compound 1], the “γ-H2AX (H2AX serine 139 phosphorylation)” value in the test with U-87MG cells was “not increased”. Besides, the 50% inhibitory concentration (IC50) with IMS-M2, in the test with U937, with Karpass299, with MV4-11, in the test on OCI-AML2 and in the test on NB4 was > 100 µM throughout. The IC50 with HL-60, with Kasumi-1 and in the test on OCI-AML3 was > 100 µM in each case.
On to `O=C(O)c1cnc(SCCc2ccccc2)[nH]c1=O` [compound 9, 2-(Phenethylthio)-3,4-dihydro-4-oxopyrimidine-5-carboxylic Acid], for which the “γ-H2AX (H2AX serine 139 phosphorylation)” value in the test on U-87MG cells was “strong γ-H2AX increase”. Moreover, the IC50 was > 100 µM in the test with IMS-M2; > 100 µM in the test on U937; > 100 µM in the test on Karpass299; > 100 µM in the test with MV4-11; > 100 µM with OCI-AML2; 91 ± 3 µM in the test on NB4. Besides, the IC50 in the test with HL-60 was 73 ± 3 µM; in the test on Kasumi-1 it was > 100 µM; in the test with OCI-AML3 it was > 100 µM. Besides, the “trapping of RPL8 with HA-tagged NO66” value on HA-tagged NO66 is “did not observe evidence”.

What is called IC50 is the concentration needed to halve the response being measured.
